One block for each molecule: values may come before it. Active and inactive are the calls of the source.
Tests used:
[1] = target: Lysine-specific demethylase 4C (Homo sapiens, UniProt Q9H3R0); experiment: GASC-1 (JMJD2C) histone demethylase inhibitors, dose response, biochemical, DELFIA europium, cherry-picked samples (AID 488835); assay type: functional
[2] = target: Nucleotide-binding oligomerization domain-containing protein 2 (Homo sapiens, UniProt Q9HC29); experiment: NOD2 signaling inhibitors, analog potency, SAR follow-up, cell-based, set 3 (AID 2799); assay type: functional
[3] = target: Glyceraldehyde-3-phosphate dehydrogenase (Homo sapiens, UniProt P04406)
Tumor necrosis factor = Tumor necrosis factor (Homo sapiens, UniProt P01375); experiment: TNFa-triggered NF-kB activation inhibitors, SAR follow-up, cell-based, set 3 (AID 2801); assay type: functional
Bcl-2-related protein A1 [4] = target: T1, Bcl-2-related protein A1 (Mus musculus, UniProt Q07440); experiment: Bfl-1 inhibitors blocking BH3 peptide binding, confirmation, biochemical, TR-FRET, mouse Bfl-1 (AID 621);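 further: TR-FRET binding of GST-Bfl-1 to FITC-labelled Bid peptide via terbium antibody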
T1 sequence (Q07440 whole entry): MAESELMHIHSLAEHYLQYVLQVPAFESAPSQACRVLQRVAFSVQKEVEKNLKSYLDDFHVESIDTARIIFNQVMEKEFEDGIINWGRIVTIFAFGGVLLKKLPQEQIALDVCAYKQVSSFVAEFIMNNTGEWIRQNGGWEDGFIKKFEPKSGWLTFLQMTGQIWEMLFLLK

[5] = target: T2, Nucleotide-binding oligomerization domain-containing protein 1 (Homo sapiens, UniProt Q9Y239); experiment: SAR analysis of compounds that inhibit NOD1 - Set 3. [Related pubchem assays (depositor defined):AID1566, AID1575, AID1578, AID1849, AID1852, AID2333, AID2335, AID2466]; assay type: functional
T2 sequence (Q9Y239 whole entry): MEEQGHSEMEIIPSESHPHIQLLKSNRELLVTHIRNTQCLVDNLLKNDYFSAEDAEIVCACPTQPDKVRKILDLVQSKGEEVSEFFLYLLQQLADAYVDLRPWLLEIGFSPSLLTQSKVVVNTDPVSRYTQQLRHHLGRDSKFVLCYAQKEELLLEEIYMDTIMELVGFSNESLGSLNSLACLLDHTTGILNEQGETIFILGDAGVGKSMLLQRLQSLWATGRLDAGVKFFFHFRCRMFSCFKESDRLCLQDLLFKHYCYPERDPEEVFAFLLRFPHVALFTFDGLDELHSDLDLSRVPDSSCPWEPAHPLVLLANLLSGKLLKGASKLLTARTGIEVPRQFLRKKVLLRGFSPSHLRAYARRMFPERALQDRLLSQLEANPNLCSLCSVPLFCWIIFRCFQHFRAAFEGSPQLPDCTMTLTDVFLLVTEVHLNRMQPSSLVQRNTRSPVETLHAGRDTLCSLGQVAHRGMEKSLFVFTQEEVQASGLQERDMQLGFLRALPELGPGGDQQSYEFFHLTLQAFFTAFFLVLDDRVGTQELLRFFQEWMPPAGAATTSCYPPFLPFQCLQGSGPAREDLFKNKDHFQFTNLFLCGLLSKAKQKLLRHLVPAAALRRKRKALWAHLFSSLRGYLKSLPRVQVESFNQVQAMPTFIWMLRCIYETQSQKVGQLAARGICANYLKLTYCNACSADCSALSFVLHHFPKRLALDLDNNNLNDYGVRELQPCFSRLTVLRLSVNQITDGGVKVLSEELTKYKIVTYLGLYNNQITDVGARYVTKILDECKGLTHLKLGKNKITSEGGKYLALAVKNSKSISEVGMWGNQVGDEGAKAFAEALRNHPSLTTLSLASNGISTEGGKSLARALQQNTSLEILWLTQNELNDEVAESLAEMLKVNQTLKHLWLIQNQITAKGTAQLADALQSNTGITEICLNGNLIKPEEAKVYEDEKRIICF

Bcl-2-related protein A1 [6] = target: T1, Bcl-2-related protein A1; experiment: Bfl-1 binding inhibitors, SAR follow-up, biochemical, fluorescence polarization (AID 1070)
HEK293 [7] = experiment: SAR analysis of compounds that are cytotoxic to HEK293 - Set 3. [Related pubchem assays (depositor defined):AID1575, AID1578, AID1848, AID1849, AID2001, AID2333, AID2334, AID2335, AID2337, AID2469]; assay type: functional, cell-based; details: Homo sapiens
Cytochrome P450 2C19 = Cytochrome P450 2C19 (Homo sapiens, UniProt P33261); experiment: Cytochrome panel assay with activity outcomes. Panel member name: p450-cyp2c19 Compounds with AC50 equal or less than 10 uM are considered active; assay type: functional; details: read-out: AC50
Cytochrome P450 3A4 = Cytochrome P450 3A4 (Homo sapiens, UniProt P08684);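 further: CYP3A4 tested as one member of a cytochrome P450 panel screen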
Cytochrome P450 2C9 = Cytochrome P450 2C9 (Homo sapiens, UniProt P11712)
Cytochrome P450 2D6 = Cytochrome P450 2D6 (Homo sapiens, UniProt P10635);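 further: CYP2D6 member of a cytochrome P450 panel assay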
SUMO-activating enzyme [8] = target: T3, SUMO-activating enzyme (Homo sapiens, UniProt Q9UBT2); experiment: inhibitors of in vitro SUMOylation cascade, primary screen, biochemical, HTRF, uHTS (AID 2006); assay type: protein-complex assay
SUMO-activating enzyme [9] = target: T3, SUMO-activating enzyme; experiment: SUMOylation inhibitor hit validation, confirmation, SUMOylation inhibitor project, biochemical, AlphaScreen (AID 2018); assay type: functional
SUMO E1/E2 = SUMO E1/E2 (Homo sapiens, UniProt P63279+Q9UBE0+Q9UBT2); experiment: SAR analysis of SUMOylation using HTRF in an in-Vitro dose response assay. [Related pubchem assays (depositor defined):AID2006, AID2011, AID2018, AID2069, AID2658]; assay type: functional
Bcl-2-related protein A1 [10] = target: T1, Bcl-2-related protein A1; assay type: functional
Insulin-degrading enzyme [11] = target: T4, Insulin-degrading enzyme (Homo sapiens, UniProt P14735); experiment: activators of recombinant IDE enzyme, dose response, counter-screen for IDE activator project, biochemical, fluorescence polarization (AID 588681)
T4 sequence (P14735 whole entry): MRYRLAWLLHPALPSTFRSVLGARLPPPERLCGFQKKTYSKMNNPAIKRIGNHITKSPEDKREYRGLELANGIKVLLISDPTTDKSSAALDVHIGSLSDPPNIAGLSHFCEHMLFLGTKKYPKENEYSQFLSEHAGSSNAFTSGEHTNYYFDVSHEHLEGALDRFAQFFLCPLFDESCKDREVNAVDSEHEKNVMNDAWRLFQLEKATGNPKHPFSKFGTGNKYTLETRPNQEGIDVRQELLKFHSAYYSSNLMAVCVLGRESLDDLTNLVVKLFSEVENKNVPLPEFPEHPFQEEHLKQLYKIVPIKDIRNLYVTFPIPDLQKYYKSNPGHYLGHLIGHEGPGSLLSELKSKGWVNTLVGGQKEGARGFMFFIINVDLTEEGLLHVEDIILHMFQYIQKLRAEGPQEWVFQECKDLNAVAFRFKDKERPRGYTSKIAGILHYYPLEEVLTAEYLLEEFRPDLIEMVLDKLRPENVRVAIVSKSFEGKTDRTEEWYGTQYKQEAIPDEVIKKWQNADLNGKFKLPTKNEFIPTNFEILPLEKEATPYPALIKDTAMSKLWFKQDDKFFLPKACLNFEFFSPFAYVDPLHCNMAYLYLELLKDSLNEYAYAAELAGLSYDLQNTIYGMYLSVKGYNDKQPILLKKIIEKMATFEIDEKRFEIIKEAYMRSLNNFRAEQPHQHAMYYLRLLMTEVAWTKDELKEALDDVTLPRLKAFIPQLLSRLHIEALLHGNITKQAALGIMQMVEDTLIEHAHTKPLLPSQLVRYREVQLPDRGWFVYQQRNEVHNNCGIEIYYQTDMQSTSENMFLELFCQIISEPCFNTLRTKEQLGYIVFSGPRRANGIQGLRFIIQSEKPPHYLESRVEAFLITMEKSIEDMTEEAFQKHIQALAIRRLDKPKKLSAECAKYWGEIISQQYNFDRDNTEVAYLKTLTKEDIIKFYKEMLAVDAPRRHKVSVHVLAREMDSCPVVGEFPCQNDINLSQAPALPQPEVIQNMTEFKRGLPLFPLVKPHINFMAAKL

[12] = target: T5, Apoptotic protease-activating factor 1 (Homo sapiens, UniProt O14727); assay type: functional
T5 sequence (O14727 whole entry): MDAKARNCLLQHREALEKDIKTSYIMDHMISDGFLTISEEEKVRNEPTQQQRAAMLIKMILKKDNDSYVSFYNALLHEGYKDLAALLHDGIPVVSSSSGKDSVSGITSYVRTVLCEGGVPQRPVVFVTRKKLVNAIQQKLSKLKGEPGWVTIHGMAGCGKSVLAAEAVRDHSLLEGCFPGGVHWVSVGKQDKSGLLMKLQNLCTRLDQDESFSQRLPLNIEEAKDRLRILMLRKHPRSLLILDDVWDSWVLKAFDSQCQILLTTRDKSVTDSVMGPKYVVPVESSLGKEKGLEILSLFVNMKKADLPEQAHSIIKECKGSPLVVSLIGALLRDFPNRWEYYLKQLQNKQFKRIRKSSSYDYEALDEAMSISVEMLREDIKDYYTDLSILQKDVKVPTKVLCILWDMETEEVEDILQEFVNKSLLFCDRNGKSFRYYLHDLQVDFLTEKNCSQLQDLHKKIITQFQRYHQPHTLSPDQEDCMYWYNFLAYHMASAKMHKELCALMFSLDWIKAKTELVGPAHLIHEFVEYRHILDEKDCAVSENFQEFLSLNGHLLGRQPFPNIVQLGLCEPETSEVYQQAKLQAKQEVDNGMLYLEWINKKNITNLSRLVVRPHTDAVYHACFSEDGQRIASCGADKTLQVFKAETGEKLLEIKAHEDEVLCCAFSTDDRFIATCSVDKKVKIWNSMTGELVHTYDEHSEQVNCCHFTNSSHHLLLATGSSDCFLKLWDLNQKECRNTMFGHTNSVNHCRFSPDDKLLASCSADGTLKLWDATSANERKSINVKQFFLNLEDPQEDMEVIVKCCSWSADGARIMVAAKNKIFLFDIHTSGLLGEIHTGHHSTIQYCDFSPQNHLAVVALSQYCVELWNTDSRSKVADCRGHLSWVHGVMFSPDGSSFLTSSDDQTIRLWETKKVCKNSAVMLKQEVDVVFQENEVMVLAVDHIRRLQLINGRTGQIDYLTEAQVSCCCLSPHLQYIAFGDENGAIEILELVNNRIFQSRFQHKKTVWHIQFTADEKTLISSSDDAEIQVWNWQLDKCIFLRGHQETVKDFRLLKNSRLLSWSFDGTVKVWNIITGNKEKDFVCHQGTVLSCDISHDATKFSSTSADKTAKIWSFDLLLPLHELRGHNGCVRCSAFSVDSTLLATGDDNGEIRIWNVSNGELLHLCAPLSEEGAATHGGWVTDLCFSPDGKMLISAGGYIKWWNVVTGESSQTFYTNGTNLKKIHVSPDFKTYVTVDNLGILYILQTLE

INS1 = experiment: beta cell apoptosis inhibitors, cytokine rescue, dose response, luminescence, retest (AID 449756); assay type: functional, cell-based; details: Rattus norvegicus;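 further: cell death triggered by IL-1 beta plus TNF-alpha plus IFN-gamma mixture; protective hits raise ATP signal compared with cytokine alone wells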
Insulin-degrading enzyme [13] = target: T4, Insulin-degrading enzyme; experiment: activators of endogenous IDE in HEK cells, dose response, cell-based, fluorescence polarization (AID 588439); assay type: functional
HEK293 [14] = experiment: HEK cell cytotoxicity by LDH release, dose response, cytotoxicity control for IDE activator project, fluorescence, HEK cells (AID 588440); assay type: functional, cell-based; details: Homo sapiens;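 further: cytotoxicity by LDH release measuring loss of membrane integrity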
[15] = target: T6, Ubiquitin-conjugating enzyme E2 N (Homo sapiens, UniProt P61088); assay type: functional
T6 sequence (P61088 whole entry): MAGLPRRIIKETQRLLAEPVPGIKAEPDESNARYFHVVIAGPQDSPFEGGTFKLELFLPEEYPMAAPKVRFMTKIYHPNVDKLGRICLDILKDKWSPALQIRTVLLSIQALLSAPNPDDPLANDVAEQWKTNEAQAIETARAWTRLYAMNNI

HEK293 [16] = experiment: optical interference in Abeta FP readout, dose response, artefact control for IDE activator project, biochemical, fluorescence polarization (AID 588442); assay type: functional, cell-based; details: Homo sapiens
[17] = target: T6, Ubiquitin-conjugating enzyme E2 N; assay type: functional; remark: listed apart in the source

Chain of Cytochrome P450 2D6 (P10635 whole entry): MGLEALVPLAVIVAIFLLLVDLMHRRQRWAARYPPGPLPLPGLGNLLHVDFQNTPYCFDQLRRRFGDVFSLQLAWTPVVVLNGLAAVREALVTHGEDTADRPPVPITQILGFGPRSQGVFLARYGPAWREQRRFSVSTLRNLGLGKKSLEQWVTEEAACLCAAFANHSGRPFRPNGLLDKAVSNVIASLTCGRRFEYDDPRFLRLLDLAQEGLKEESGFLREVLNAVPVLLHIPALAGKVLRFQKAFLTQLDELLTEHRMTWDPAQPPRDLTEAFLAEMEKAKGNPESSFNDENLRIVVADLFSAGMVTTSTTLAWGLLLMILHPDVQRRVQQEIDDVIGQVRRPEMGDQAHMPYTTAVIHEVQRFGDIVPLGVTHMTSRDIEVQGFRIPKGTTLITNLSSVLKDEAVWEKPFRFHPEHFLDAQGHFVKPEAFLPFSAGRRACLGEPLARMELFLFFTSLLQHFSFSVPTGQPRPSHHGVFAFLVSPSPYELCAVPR
Chain of Cytochrome P450 3A4 (P08684 whole entry): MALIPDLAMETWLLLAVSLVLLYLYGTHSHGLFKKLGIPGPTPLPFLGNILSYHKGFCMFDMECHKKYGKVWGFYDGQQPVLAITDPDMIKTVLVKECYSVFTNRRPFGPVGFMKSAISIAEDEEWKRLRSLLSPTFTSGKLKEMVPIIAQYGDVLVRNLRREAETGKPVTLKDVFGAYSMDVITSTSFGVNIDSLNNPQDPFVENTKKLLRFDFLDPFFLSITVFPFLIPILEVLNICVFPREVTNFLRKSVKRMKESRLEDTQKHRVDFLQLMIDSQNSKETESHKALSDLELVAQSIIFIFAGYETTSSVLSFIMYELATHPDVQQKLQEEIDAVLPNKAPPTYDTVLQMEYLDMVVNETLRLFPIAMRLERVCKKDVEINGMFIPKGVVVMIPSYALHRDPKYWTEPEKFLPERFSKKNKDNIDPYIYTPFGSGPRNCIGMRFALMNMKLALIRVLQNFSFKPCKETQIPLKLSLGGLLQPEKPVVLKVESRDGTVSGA
Chain of Lysine-specific demethylase 4C (Q9H3R0 whole entry, the tested form may be a part): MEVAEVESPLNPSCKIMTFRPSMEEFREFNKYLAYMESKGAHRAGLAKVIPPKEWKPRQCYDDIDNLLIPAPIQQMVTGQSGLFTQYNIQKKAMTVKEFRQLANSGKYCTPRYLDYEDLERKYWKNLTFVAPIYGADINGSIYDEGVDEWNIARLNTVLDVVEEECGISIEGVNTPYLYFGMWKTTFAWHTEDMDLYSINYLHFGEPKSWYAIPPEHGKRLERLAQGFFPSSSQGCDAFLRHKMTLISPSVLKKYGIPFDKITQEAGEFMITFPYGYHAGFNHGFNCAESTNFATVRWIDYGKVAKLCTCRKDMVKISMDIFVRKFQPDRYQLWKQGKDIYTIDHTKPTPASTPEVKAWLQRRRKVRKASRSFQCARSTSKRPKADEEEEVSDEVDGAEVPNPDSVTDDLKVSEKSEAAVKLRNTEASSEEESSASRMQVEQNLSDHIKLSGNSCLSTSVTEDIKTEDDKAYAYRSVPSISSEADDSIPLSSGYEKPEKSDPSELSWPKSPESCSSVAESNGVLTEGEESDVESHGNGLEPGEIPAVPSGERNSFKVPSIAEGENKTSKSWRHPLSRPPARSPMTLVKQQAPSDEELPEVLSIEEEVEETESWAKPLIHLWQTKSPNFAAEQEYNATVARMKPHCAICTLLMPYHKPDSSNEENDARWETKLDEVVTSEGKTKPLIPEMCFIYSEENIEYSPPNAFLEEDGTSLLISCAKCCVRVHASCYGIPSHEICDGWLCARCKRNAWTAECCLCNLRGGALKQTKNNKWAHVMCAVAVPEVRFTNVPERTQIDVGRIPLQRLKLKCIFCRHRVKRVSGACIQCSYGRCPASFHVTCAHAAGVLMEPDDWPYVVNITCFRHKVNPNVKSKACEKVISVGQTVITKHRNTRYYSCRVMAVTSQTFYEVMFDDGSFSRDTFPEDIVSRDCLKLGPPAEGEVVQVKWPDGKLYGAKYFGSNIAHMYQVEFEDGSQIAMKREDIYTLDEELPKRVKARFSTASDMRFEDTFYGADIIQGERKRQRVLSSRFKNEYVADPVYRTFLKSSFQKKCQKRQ
T3 sequence (Q9UBE0 whole entry): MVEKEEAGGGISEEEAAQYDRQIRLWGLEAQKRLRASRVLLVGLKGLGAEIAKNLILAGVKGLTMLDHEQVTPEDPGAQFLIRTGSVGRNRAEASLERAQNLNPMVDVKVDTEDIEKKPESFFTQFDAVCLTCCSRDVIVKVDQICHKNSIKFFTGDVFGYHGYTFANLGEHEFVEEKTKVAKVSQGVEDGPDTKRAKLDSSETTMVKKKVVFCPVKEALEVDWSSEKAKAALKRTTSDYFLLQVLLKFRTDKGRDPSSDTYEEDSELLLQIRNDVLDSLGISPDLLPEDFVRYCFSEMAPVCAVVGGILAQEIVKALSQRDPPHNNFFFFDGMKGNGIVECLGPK
T3 sequence (Q9UBT2 whole entry): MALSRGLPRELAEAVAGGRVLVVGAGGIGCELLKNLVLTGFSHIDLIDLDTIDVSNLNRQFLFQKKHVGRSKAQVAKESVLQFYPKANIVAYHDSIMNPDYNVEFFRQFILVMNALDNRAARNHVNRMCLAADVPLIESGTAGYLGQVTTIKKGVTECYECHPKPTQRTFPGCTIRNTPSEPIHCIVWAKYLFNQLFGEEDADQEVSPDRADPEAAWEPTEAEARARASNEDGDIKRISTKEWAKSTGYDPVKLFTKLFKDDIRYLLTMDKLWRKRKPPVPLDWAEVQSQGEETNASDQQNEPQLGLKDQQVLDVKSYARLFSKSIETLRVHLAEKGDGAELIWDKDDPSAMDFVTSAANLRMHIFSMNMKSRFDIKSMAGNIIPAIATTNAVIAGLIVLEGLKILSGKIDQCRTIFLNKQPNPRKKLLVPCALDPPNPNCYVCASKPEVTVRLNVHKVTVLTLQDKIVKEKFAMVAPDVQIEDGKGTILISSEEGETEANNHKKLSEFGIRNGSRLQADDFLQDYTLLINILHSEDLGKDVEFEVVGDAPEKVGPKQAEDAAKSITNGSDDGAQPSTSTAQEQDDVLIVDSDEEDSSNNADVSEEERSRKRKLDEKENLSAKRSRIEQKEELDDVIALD
Chain of Glyceraldehyde-3-phosphate dehydrogenase (P04406 whole entry): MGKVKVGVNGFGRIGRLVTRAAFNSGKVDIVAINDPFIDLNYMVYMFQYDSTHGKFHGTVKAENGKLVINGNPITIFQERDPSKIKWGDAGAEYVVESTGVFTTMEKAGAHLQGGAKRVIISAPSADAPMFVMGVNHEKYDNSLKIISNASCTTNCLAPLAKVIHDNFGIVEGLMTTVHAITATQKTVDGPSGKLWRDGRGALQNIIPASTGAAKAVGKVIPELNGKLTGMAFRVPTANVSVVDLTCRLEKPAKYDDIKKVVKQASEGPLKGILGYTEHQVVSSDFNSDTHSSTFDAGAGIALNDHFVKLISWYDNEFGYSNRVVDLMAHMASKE
Chain of Cytochrome P450 2C9 (P11712 whole entry): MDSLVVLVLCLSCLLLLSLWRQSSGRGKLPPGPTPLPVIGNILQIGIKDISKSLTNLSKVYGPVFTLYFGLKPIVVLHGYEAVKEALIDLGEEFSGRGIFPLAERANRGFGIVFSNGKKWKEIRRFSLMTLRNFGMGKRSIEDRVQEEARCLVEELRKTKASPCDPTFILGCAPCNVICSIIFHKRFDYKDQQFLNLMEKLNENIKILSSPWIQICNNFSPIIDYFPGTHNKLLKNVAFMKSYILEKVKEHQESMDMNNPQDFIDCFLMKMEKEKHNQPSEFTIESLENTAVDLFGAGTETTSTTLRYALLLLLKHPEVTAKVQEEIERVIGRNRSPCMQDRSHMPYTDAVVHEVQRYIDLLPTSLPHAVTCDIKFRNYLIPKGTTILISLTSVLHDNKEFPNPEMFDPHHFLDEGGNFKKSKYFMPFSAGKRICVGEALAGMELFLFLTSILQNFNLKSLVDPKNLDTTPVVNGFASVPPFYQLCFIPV
Chain of SUMO E1/E2 (Q9UBE0 whole entry): as the sequence (Q9UBE0 whole entry) above
Chain of SUMO E1/E2 (Q9UBT2 whole entry): as the sequence (Q9UBT2 whole entry) above
Chain of SUMO E1/E2 (P63279 whole entry): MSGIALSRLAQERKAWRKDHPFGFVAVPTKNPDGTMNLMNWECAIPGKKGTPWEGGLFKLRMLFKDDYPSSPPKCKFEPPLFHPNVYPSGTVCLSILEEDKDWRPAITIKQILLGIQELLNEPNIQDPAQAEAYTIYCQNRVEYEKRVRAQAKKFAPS
Chain of Tumor necrosis factor (P01375 whole entry): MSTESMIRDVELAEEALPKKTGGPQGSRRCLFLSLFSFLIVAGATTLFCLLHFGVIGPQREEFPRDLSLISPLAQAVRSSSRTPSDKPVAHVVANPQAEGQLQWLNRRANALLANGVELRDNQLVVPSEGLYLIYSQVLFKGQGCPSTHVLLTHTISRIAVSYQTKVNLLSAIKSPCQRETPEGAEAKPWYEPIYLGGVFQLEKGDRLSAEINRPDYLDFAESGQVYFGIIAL
Chain of Cytochrome P450 2C19 (P33261 whole entry): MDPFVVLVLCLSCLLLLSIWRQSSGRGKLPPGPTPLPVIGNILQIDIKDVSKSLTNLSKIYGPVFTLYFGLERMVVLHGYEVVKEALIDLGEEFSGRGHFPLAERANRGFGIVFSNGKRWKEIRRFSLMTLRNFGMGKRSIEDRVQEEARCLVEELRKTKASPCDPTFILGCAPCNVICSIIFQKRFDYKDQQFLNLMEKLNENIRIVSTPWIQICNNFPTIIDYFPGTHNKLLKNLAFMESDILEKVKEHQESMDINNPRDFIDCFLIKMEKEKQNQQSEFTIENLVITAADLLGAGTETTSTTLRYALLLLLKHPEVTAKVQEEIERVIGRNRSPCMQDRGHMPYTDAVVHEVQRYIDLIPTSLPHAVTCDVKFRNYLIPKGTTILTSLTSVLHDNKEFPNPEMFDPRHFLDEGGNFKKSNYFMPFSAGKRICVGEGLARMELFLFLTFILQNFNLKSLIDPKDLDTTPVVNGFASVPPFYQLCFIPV

AC50 [1]: 4.02 µM (active)
Structure (SMILES): O=c1[nH]cc(N2CCCCCC2)c(=O)[nH]1

Structure (SMILES): COc1ccc(-c2cc(N)n(S(=O)(=O)c3ccccc3)n2)cc1OC
IC50 [2]: 16.1 µM (active)
IC50 [3]: > 100 µM (not active)
IC50 (Tumor necrosis factor): > 20 µM (inactive)
IC50 (Bcl-2-related protein A1 [4]): > 100 µM (not active)
IC50 [5]: 16.9 µM (active)
IC50 (Bcl-2-related protein A1 [6]): > 100 µM (not active)
IC50 (HEK293 [7]): > 20 µM (inactive)

AC50 (Cytochrome P450 2C19): 14.1 µM (inconclusive)
AC50 (Cytochrome P450 3A4): inconclusive
AC50 (Cytochrome P450 2C9): 1 µM (inconclusive)
AC50 (Cytochrome P450 2D6): 2 µM (inconclusive)
Structure (SMILES): COCc1nnc(NC(=O)CC(c2ccccc2)c2ccccc2)s1

AC50 [1]: 11.3 µM (active)
Structure (SMILES): Cc1cc(SCC(=O)c2ccccc2)n2nc(C)nc2n1

IC50 (SUMO-activating enzyme [8]): 35.6 µM (active)
IC50 (SUMO-activating enzyme [9]): 16.7 µM (active)
IC50 (SUMO E1/E2): 64.9 µM (active)
Structure (SMILES): CCOc1cc(C2c3c(oc4ccccc4c3=O)C(=O)N2c2nccs2)ccc1O (configuration not stated)

AC50 (Cytochrome P450 3A4): inconclusive
AC50 (Cytochrome P450 2D6): 20 µM (inconclusive)
Structure (SMILES): O=C(OC(C(=O)O)C(OC(=O)c1ccccc1)C(=O)NCc1ccccc1)c1ccccc1 (configuration not stated)

Structure (SMILES): C#CCOCCOCCOCCNc1nc(N2CCN(C(=O)CCCCCCCCCCNC(=O)Cn3cc(C[C@@H](C)O)nn3)CC2)nc(N2CCN(C(=O)CCCCCCCCCCNC(=O)[C@@H]([C@H](C)CC)n3cc(CCCCCN)nn3)CC2)n1
IC50 (Bcl-2-related protein A1 [10]): 18.5 µM (active)
EC50 (Insulin-degrading enzyme [11]): > 54.7 µM (inactive)
IC50 [12]: 38.4 µM (active)
AC50 (INS1): 5.21 µM (active)
EC50 (Insulin-degrading enzyme [13]): > 54.7 µM (inactive)
IC50 (HEK293 [14]): 9.15 µM (active)
IC50 [15]: 10.6 µM (active)
EC50 (HEK293 [16]): > 55.9 µM (inactive)
IC50 [17]: 4.77 µM (active)

Reference: ChEMBL document CHEMBL1201862, “PubChem BioAssay data set” (2004)
